Source: US11058678B2 (Enanta Pharmaceuticals, Inc., priority 2018, dated 2021)

How the values were obtained:
HBV (2.2.15 cells) = test: Antiviral activity in 2.2.15 cells: reduction of viral product accumulation (qPCR of lysates, HBsAg or HBeAg ELISA); assay type: cell-based, hepatitis B virus (HBV); conditions: Hepatitis B virus, 120 h, day 5 post treatment, 50% reduction of viral product accumulation in lysates or supernatants vs no drug controls, readout (qPCR, HBsAg, HBeAg) not specified
Procedure, shortened: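 HBV-producing 2.2.15 cells, 35,000/well, treated with 5-fold serial compound dilutions at 0.5% final DMSO for 5 days. Lysate HBV DNA by qPCR or supernatant HBsAg/HBeAg by ELISA; EC50 is 50% reduction versus no-drug control, binned A<0.1 μM, B 0.1-1 μM, C>1 μM.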

[1] = Compound induced cellular toxicity in HepG2 cells (ATPlite 1 Step); assay type: cell-based; conditions: human, three days, 50% reduction of total ATP levels vs no drug controls
Procedure: At day 3, post seeding cells are treated with ATPlite 1 Step according to the manufacturer's instructions.

## COCCCOc1cc2c(cc1-c1ccsc1)-c1cc(=O)c(C(=O)O)cn1[C@H](C(C)(C)C)C2 [Example 5, (S)-6-(tert-butyl)-9-(3-methoxypropoxy)-2-oxo-10-(thiophen-3-yl)-6,7-dihydro-2H-pyrido[2,1-a]isoquinoline-3-carboxylic Acid]
HBV (2.2.15 cells)
  EC50: < 100 nM
[1]
  CC50 at 3 days: > 25000 nM

## COCCCOc1cc2c(cc1-c1ccc(F)cc1)-c1cc(=O)c(C(=O)O)cn1[C@H]1[C@@H]2COC1(C)C [Example 61, (3aS,12bR)-10-(4-fluorophenyl)-11-(3-methoxypropoxy)-3,3-dimethyl-7-oxo-3,3a,7,12b-tetrahydro-1H-furo[3,4-c]pyrido[2,1-a]isoquinoline-6-carboxylic Acid]
HBV (2.2.15 cells)
  EC50: < 100 nM
[1]
  CC50 at 3 days: > 25000 nM

## COCCCOc1cc2c(cc1-c1cccc(F)c1)-c1cc(=O)c(C(=O)O)cn1[C@H](C(C)(C)C)C2 [Example 14, (S)-6-(tert-butyl)-10-(3-fluorophenyl)-9-(3-methoxypropoxy)-2-oxo-6,7-dihydro-2H-pyrido[2,1-a]isoquinoline-3-carboxylic Acid]
HBV (2.2.15 cells)
  EC50: < 100 nM
[1]
  CC50 at 3 days: 10000 to 25000 nM

## COCCCOc1cc2c(cc1-c1cnn(C)c1)-c1cc(=O)c(C(=O)O)cn1[C@H](C(C)(C)C)C2 [Example 4, (S)-6-(tert-butyl)-9-(3-methoxypropoxy)-10-(1-methyl-1H-pyrazol-4-yl)-2-oxo-6,7-dihydro-2H-pyrido[2,1-a]isoquinoline-3-carboxylic Acid]
HBV (2.2.15 cells)
  EC50: < 100 nM
[1]
  CC50 at 3 days: > 25000 nM

## COCCCOc1cc2c(cc1-n1cccn1)-c1cc(=O)c(C(=O)O)cn1[C@H](C(C)(C)C)C2 [Example 28, (S)-6-(tert-butyl)-9-(3-methoxypropoxy)-2-oxo-10-(1H-pyrazol-1-yl)-6,7-dihydro-2H-pyrido[2,1-a]isoquinoline-3-carboxylic Acid]
HBV (2.2.15 cells)
  EC50: 100 to 1000 nM
[1]
  CC50 at 3 days: > 25000 nM

## COCCCOc1cc2c(cc1-c1ccc(F)cc1)-c1cc(=O)c(C(=O)O)cn1[C@H](C(C)(C)C)C2 [Example 15, (S)-6-(tert-butyl)-10-(4-fluorophenyl)-9-(3-methoxypropoxy)-2-oxo-6,7-dihydro-2H-pyrido[2,1-a]isoquinoline-3-carboxylic Acid]
HBV (2.2.15 cells)
  EC50: < 100 nM
[1]
  CC50 at 3 days: 10000 to 25000 nM

## COCCCOc1cc2c(cc1-c1sc(C)nc1C)-c1cc(=O)c(C(=O)O)cn1[C@H](C(C)(C)C)C2 [Example 20, (S)-6-(tert-butyl)-10-(2,4-dimethylthiazol-5-yl)-9-(3-methoxypropoxy)-2-oxo-6,7-dihydro-2H-pyrido[2,1-a]isoquinoline-3-carboxylic Acid]
HBV (2.2.15 cells)
  EC50: 100 to 1000 nM
[1]
  CC50 at 3 days: > 25000 nM

## CC(C)(C)[C@@H]1Cc2c(cc(-c3cccs3)c3c2CCO3)-c2cc(=O)c(C(=O)O)cn21 [Example 86, (S)-5-(tert-butyl)-9-oxo-12-(thiophen-2-yl)-2,3,4,9-tetrahydro-5H-furo[3,2-f]pyrido[2,1-a]isoquinoline-8-carboxylic Acid]
HBV (2.2.15 cells)
  EC50: < 100 nM
[1]
  CC50 at 3 days: < 10000 nM

## COCCCOc1cc2c(cc1-c1cc[nH]c1)-c1cc(=O)c(C(=O)O)cn1[C@H](C(C)(C)C)C2 [Example 11, (S)-6-(tert-butyl)-9-(3-methoxypropoxy)-2-oxo-10-(1H-pyrrol-3-yl)-6,7-dihydro-2H-pyrido[2,1-a]isoquinoline-3-carboxylic Acid]
HBV (2.2.15 cells)
  EC50: < 100 nM
[1]
  CC50 at 3 days: > 25000 nM

## CC(C)(C)[C@@H]1Cc2c(cc(-c3ccc(F)c(F)c3)c3c2CCO3)-c2cc(=O)c(C(=O)O)cn21 [Example 77, (S)-5-(tert-butyl)-12-(3,4-difluorophenyl)-9-oxo-2,3,4,9-tetrahydro-5H-furo[3,2-f]pyrido[2,1-a]isoquinoline-8-carboxylic Acid]
HBV (2.2.15 cells)
  EC50: < 100 nM
[1]
  CC50 at 3 days: < 10000 nM

## COCCCOc1cc2c(cc1C1=CCCCO1)-c1cc(=O)c(C(=O)O)cn1[C@H](C(C)(C)C)C2 [Example 29, (S)-6-(tert-butyl)-10-(3,4-dihydro-2H-pyran-6-yl)-9-(3-methoxypropoxy)-2-oxo-6,7-dihydro-2H-pyrido[2,1-a]isoquinoline-3-carboxylic Acid]
HBV (2.2.15 cells)
  EC50: 100 to 1000 nM
[1]
  CC50 at 3 days: > 25000 nM

## COCCCOc1cc2c(cc1-c1ccoc1)-c1cc(=O)c(C(=O)O)cn1[C@H]1[C@@H]2CCC1(C)C [Example 60, (3aS,12bR)-10-(furan-3-yl)-11-(3-methoxypropoxy)-3,3-dimethyl-7-oxo-1,2,3,3a,7,12b-hexahydrocyclopenta[c]pyrido[2,1-a]isoquinoline-6-carboxylic Acid]
HBV (2.2.15 cells)
  EC50: < 100 nM
[1]
  CC50 at 3 days: 10000 to 25000 nM

## COCCCOc1cc2c(cc1-c1nc(C(F)(F)F)co1)-c1cc(=O)c(C(=O)O)cn1[C@H](C(C)(C)C)C2 [Example 26, (S)-6-(tert-butyl)-9-(3-methoxypropoxy)-2-oxo-10-(4-(trifluoromethyl)oxazol-2-yl)-6,7-dihydro-2H-pyrido[2,1-a]isoquinoline-3-carboxylic Acid]
HBV (2.2.15 cells)
  EC50: 100 to 1000 nM
[1]
  CC50 at 3 days: > 25000 nM

## COCCCOc1cc2c(cc1-c1ccc(F)cc1)-c1cc(=O)c(C(=O)O)cn1[C@H]1[C@@H]2CCC1(C)C [Example 59]
HBV (2.2.15 cells)
  EC50: < 100 nM
[1]
  CC50 at 3 days: 10000 to 25000 nM

## CC(C)(C)[C@@H]1Cc2c(cc(-c3ccccc3F)c3c2CCO3)-c2cc(=O)c(C(=O)O)cn21 [Example 66, (S)-5-(tert-butyl)-12-(2-fluorophenyl)-9-oxo-2,3,4,9-tetrahydro-5H-furo[3,2-f]pyrido[2,1-a]isoquinoline-8-carboxylic Acid]
HBV (2.2.15 cells)
  EC50: < 100 nM
[1]
  CC50 at 3 days: < 10000 nM

## CC1(C)Cc2c3c(cc(-c4ccn[nH]4)c2O1)-c1cc(=O)c(C(=O)O)cn1[C@H](C(C)(C)C)C3 [Example 146, (S)-5-(tert-butyl)-2,2-dimethyl-9-oxo-12-(1H-pyrazol-5-yl)-2,3,4,9-tetrahydro-5H-furo[3,2-f]pyrido[2,1-a]isoquinoline-8-carboxylic Acid]
HBV (2.2.15 cells)
  EC50: > 1000 nM

## CC(C)(C)[C@@H]1Cc2c(cc(-c3cccc(Cl)c3)c3c2CCO3)-c2cc(=O)c(C(=O)O)cn21 [Example 85, (S)-5-(tert-butyl)-12-(3-chlorophenyl)-9-oxo-2,3,4,9-tetrahydro-5H-furo[3,2-f]pyrido[2,1-a]isoquinoline-8-carboxylic Acid]
HBV (2.2.15 cells)
  EC50: < 100 nM

## COCCCOc1cc2c(cc1-c1ccc(OC(F)(F)F)cc1)-c1cc(=O)c(C(=O)O)cn1[C@H](C(C)(C)C)C2 [Example 37, (S)-6-(tert-butyl)-9-(3-methoxypropoxy)-2-oxo-10-(4-(trifluoromethoxy)phenyl)-6,7-dihydro-2H-pyrido[2,1-a]isoquinoline-3-carboxylic Acid]
HBV (2.2.15 cells)
  EC50: > 1000 nM

## COCCCCc1cc2c(cc1-c1ccc(F)cc1)-c1cc(=O)c(C(=O)O)cn1[C@H](C(C)(C)C)C2 [Example 134, (S)-6-(tert-butyl)-10-(4-fluorophenyl)-9-(4-methoxybutyl)-2-oxo-6,7-dihydro-2H-pyrido[2,1-a]isoquinoline-3-carboxylic Acid]
HBV (2.2.15 cells)
  EC50: < 100 nM

## CC(C)[C@@H]1Cc2c(cc(N3CCCC3)c3c2CCO3)-c2cc(=O)c(C(=O)O)cn21 [Example 110, (S)-5-isopropyl-9-oxo-12-(pyrrolidin-1-yl)-2,3,4,9-tetrahydro-5H-furo[3,2-f]pyrido[2,1-a]isoquinoline-8-carboxylic Acid]
HBV (2.2.15 cells)
  EC50: < 100 nM

## COCCCOc1cc2c(cc1-c1ccnn1C)-c1cc(=O)c(C(=O)O)cn1[C@H]1[C@@H]2COC1(C)C [Example 122, (3aS,12bR)-11-(3-methoxypropoxy)-3,3-dimethyl-10-(1-methyl-1H-pyrazol-5-yl)-7-oxo-3,3a,7,12b-tetrahydro-1H-furo[3,4-c]pyrido[2,1-a]isoquinoline-6-carboxylic Acid]
HBV (2.2.15 cells)
  EC50: > 1000 nM

## CC(C)(C)[C@@H]1Cc2c(cc(C3CCCO3)c3c2CCO3)-c2cc(=O)c(C(=O)O)cn21 (stereo partly drawn) [Example 129, (5S)-5-(tert-butyl)-9-oxo-12-(tetrahydrofuran-2-yl)-2,3,4,9-tetrahydro-5H-furo[3,2-f]pyrido[2,1-a]isoquinoline-8-carboxylic Acid]
HBV (2.2.15 cells)
  EC50: < 100 nM

## Cn1nccc1-c1cc2c(c3c1OCC3)C[C@@H](C(C)(C)C)n1cc(C(=O)O)c(=O)cc1-2 [Example 68, (S)-5-(tert-butyl)-12-(1-methyl-1H-pyrazol-5-yl)-9-oxo-2,3,4,9-tetrahydro-5H-furo[3,2-f]pyrido[2,1-a]isoquinoline-8-carboxylic Acid]
HBV (2.2.15 cells)
  EC50: < 100 nM

## CC(C)[C@@H]1Cc2c(cc(-c3ccccc3)c3c2CCO3)-c2cc(=O)c(C(=O)O)cn21 [Example 93, (S)-5-isopropyl-9-oxo-12-phenyl-2,3,4,9-tetrahydro-5H-furo[3,2-f]pyrido[2,1-a]isoquinoline-8-carboxylic Acid]
HBV (2.2.15 cells)
  EC50: < 100 nM

## CC(C)[C@@H]1Cc2c(cc(-c3cn[nH]c3)c3c2CCO3)-c2cc(=O)c(C(=O)O)cn21 [Example 102, (S)-5-isopropyl-9-oxo-12-(1H-pyrazol-4-yl)-2,3,4,9-tetrahydro-5H-furo[3,2-f]pyrido[2,1-a]isoquinoline-8-carboxylic Acid]
HBV (2.2.15 cells)
  EC50: < 100 nM

## COc1ccc(-c2cc3c(c4c2OCC4)C[C@@H](C(C)C)n2cc(C(=O)O)c(=O)cc2-3)cc1 [Example 115, (S)-5-isopropyl-12-(4-methoxyphenyl)-9-oxo-2,3,4,9-tetrahydro-5H-furo[3,2-f]pyrido[2,1-a]isoquinoline-8-carboxylic Acid]
HBV (2.2.15 cells)
  EC50: > 1000 nM

## CC(C)[C@@H]1Cc2c(cc(-c3cccs3)c3c2CCO3)-c2cc(=O)c(C(=O)O)cn21 [Example 99, (S)-5-isopropyl-9-oxo-12-(thiophen-2-yl)-2,3,4,9-tetrahydro-5H-furo[3,2-f]pyrido[2,1-a]isoquinoline-8-carboxylic Acid]
HBV (2.2.15 cells)
  EC50: < 100 nM

## CC(C)(C)[C@@H]1Cc2c(cc(-c3ccc(Cl)cc3)c3c2CCO3)-c2cc(=O)c(C(=O)O)cn21 [Example 84, (S)-5-(tert-butyl)-12-(4-chlorophenyl)-9-oxo-2,3,4,9-tetrahydro-5H-furo[3,2-f]pyrido[2,1-a]isoquinoline-8-carboxylic Acid]
HBV (2.2.15 cells)
  EC50: > 1000 nM
